The results in this text go back to patent US3996228A, “Pyrimidinoaminoethyl ergoline derivatives” (Societa' Farmaceutici Italia S.p.A., priority 1973, dated 1976).

Converted amounts (≈) assume the structure as drawn. Where two headings read alike, the source gives them in different places. Bounds are passed on as bounds.

The test system of data set [1] is lethal effects caused by adrenaline. The data set can be described thus: adrenolytic activity in vivo: reduction of the lethal effects caused by adrenaline. The following applies: rat, 50% reduction of lethal effects caused by adrenaline. The protocol: (§1) The compounds of the present invention have a high and prolonged adrenolytic activity and a low toxicity and are therefore useful in therapy. This adrenolytic activity was tested "in vitro" on isolated guinea pig seminal vescicle suspended in physiological solution and "in vivo" on the rat. Table 1 reports the values of concentrations, in γ/ml, which are able to produce a 50% inhibition (IC50) of the spasmogen effect caused by adrenaline and the doses in mg/Kg (ED50) able to reduce by 50% the lethal effects caused by adrenaline after oral (os) and intravenous (i.v.) administration of the compounds in question. Table 1 also reports the LD50 values, both per os and i.v. in rats.

The subject of data set [2] is isolated guinea pig seminal vescicle. The data set can be described thus: adrenolytic activity in vitro: inhibition of the spasmogen effect caused by adrenaline. Type of data set: cell-based. The following applies: Cavia porcellus, 50% inhibition of spasmogen effect caused by adrenaline. As to the method:
as §1

The next data set is described as follows: LD50 (acute toxicity). The following applies: rat, in vivo, rats. The protocol: as §1
Data set [3] in a line: analgesic activity, writhing test. Type of data set: in vivo. The protocol:
(§2) The analgesic activity was evaluated by means of the hot plate test and the writhing test, the data being given in comparison with morphine and D-propoxyphene.
(§3) In the hot plate and writhing tests, the comparison compounds morphine and D-propoxyphene have been arbitrarily assigned the value of 1.
In general terms: In writhing tests, fewer writhes than in controls are read as antinociception.

The next data set relates to hypertensive rat. The data set can be described thus: hypotensive activity on the hypertensive rat. Format: in vivo. The following applies: po, per os, dose which causes a pressure drop of about 30-40 mmHg, read-out: Hypotensive Activity active dose. As to the method:
The hypotensive activity was tested on the hypertensive rat; the reported data being the dose expressed in mg/Kg per os, which causes a pressure drop of about 30-40 mmHg.

Data set [4] in a line: analgesic activity, hot plate test. Format: in vivo. The following applies: for Analgesic Activity Hot Plate, relative to D-propoxyphene: D-propoxyphene = 1. As to the method:
as §2, §3
For orientation: In hot-plate and tail-flick tests a longer latency is read as antinociception.

Setting [5] is: iv, i.v., read-out: Adrenolytic Activity "in vivo" ED50 i.v.
Setting [6] is: po, per os, read-out: Adrenolytic Activity "in vivo" ED50 os.
Where [7] appears, read: morphine = 1, listed as 1,6-dimethyl-8β-[5-amino-2-pyrimidino-aminoethyl]-10α-ergoline.

One may read the ED50 as the dose at which the effect has come halfway, by size or by number of responders. The term IC50 denotes the concentration that gives 50% inhibition. What is called LD50 is the dose at which mortality reaches 50%. Turning to `Cc1cnc(NCC[C@@H]2C[C@@H]3c4cccc5c4c(cn5C)C[C@H]3N(C)C2)nc1` [1,6-Dimethyl-8β-[5-methyl-2-pyrimidinoaminoethyl]-10α-ergoline], the ED50 in data set [1] (setting [5]) amounted to 0.07 mg/kg; in data set [1] (setting [6]), 0.5 mg/kg. The compound also had an IC50 in data set [2] of 0.5 µg/mL (≈ 1.33 µM). For the same compound, the LD50 was 19 mg/kg in “LD50 (acute toxicity)” (iv, i.v., read-out: LD50 i.v.) and 130 mg/kg in “LD50 (acute toxicity)” (po, per os, read-out: LD50 os).
For the compound `CO[C@]12C[C@@H](CCNc3ncc([N+](=O)[O-])cn3)CN(C)[C@@H]1Cc1cn(C)c3cccc2c13` [1,6-Dimethyl-8β-[5-nitro-2-pyrimidinoaminoethyl]-10α-methoxyergoline], the results for the ED50 in data set [1] (setting [5]) and in data set [1] (setting [6]) were 0.25 mg/kg and 0.42 mg/kg, respectively. In data set [2], this compound had an IC50 of 0.5 µg/mL (≈ 1.15 µM). Also, in “LD50 (acute toxicity)” (po, per os, read-out: LD50 os), the LD50 was found to be 150 mg/kg.
`CN1C[C@H](CCNc2ncccn2)C[C@@H]2c3cccc4c3c(cn4C)C[C@H]21` [1,6-dimethyl-8β-[2-pyrimidinoaminoethyl]-10α-ergoline]: the ED50 worked out at 0.2 mg/kg in data set [1] (setting [5]) and 0.1 mg/kg in data set [1] (setting [6]). In data set [2], the IC50 was found to be 0.001 µg/mL (≈ 0.00277 µM). The 50% lethal dose (LD50) in “LD50 (acute toxicity)” (iv, i.v., read-out: LD50 i.v.) worked out at 18 mg/kg; in “LD50 (acute toxicity)” (po, per os, read-out: LD50 os), 100 mg/kg.
With `CN1C[C@H](CCNc2ncc(N)cn2)C[C@@H]2c3cccc4c3c(cn4C)C[C@H]21` [1,6-dimethyl-8β-[5-amino-2-pyrimidinoaminoethyl]-10α-ergoline], in data set [3] (D-propoxyphene = 1), the “Analgesic Activity Writhing, relative to D-propoxyphene” value turned out to be 10. Further, the “Analgesic Activity Writhing, relative to morphine” value in data set [3] (morphine = 1) was 1; in data set [3] (setting [7]), “same activity as morphine”. Besides, the ED (30-40 mmHg pressure drop) in the data set with hypertensive rat came to 10 mg/kg. Moreover, the “Analgesic Activity Hot Plate, relative to D-propoxyphene” value in data set [4] is given as 5. Further, the “Analgesic Activity Hot Plate, relative to morphine” value in data set [4] (morphine = 1) is recorded as 1; in data set [4] (setting [7]), “same activity as morphine”.
Regarding `CO[C@]12C[C@@H](CCNc3ncc(Br)cn3)CN(C)[C@@H]1Cc1cn(C)c3cccc2c13` [1,6-dimethyl-8β-[5-bromo-2-pyrimidinoaminoethyl]-10α-methoxyergoline], the ED50 was 0.65 mg/kg in data set [1] (setting [5]) and greater than 1 mg/kg in data set [1] (setting [6]). In data set [2], this compound came in with an IC50 of 0.01 µg/mL (≈ 0.0213 µM). Also, in “LD50 (acute toxicity)” (po, per os, read-out: LD50 os), the median lethal dose (LD50) was found to be 200 mg/kg.
Turning to `COc1cnc(NCC[C@@H]2C[C@@H]3c4cccc5c4c(cn5C)C[C@H]3N(C)C2)nc1` [1,6-dimethyl-8β-[5-methoxy-2-pyrimidinoaminoethyl]-10α-ergoline], the ED (30-40 mmHg pressure drop) in the data set with hypertensive rat is 10 mg/kg. The “Analgesic Activity Hot Plate, relative to D-propoxyphene” value in data set [4] is given as 2. The “Analgesic Activity Hot Plate, relative to morphine” value in data set [4] (morphine = 1) is on record as 0.5.
